Experimental data taken from patent US20070249725A1, “Pharmaceutical formulations of sympathetic antagonist for the treatment of chronic muscle pain” (priority 2006, published 2007).
Counter-ions that a name gives are not always drawn.

Assay: Multicenter placebo-controlled dose response study of intramuscular PBZ: safety and tolerance (Example II)
Format: in vivo, human
Experimental: This was a multicenter, randomized, placebo-controlled, double-blind, dose response study of intramuscular phenoxybenzamine hydrochloride (PBZ) versus vehicle and saline placebos. Phenoxybenzamine formulation known in the art (propylene glycol and alcohol) and diluted in saline at the time of injection were evaluated. […] Patients with pain in the most commonly affected regions, the upper and lower back, were studied. Patients enrolled in this study were male or female with 4 months to 8 years of myofascial pain syndrome with identifiable active trigger points. Patients were required to have had EMG documented triggers points and meet the criteria of <10 uV in the adjacent muscle site and have a minimum of a 2:1 ratio of trigger point amplitude: adjacent amplitude. Attempts were made to obtain maximum amplitude in the trigger point.
The primary objectives of this study were to evaluate the safety, tolerance, and efficacy of 4 doses (0.1, 0.3, 1.0, or 2.4 mg) of phenoxybenzamine per intramuscular injection site. The vehicle placebo group received vehicle in a concentration equivalent to the active doses. A second placebo was saline. All injections were of 0.3 ml in volume. Up to 10 trigger points were injected at each treatment session. There were up to 2 treatment sessions up to 10 days apart. The primary efficacy evaluation was made at week 12 of treatment. The Visual Analogue Pain Scale (VAS) was used to assess pain in the affected region before and after treatment. Secondary efficacy assessments included the McGill Pain Questionnaire (MPQ), the Spinal Function Sort (SFS) and the SF-36 Quality of Life questionnaire.
Thirty-two of the 79 patients (41%) in the saline placebo group, 33 of 83 patients (40%) in the vehicle placebo group, 35 of the 86 patients (41%) in the 1 mg group, and 37 of the 81 patients (46%) in the 2.4 mg group experienced 1 or more treatment-emergent adverse experiences. For all treatment groups combined, the most common adverse experiences observed were dizziness: 8%; pain 5%; nausea: 3%, and sweating: 3%. […] The most frequent adverse experiences were dizziness (8%) and pain (5%), followed by headache, sweating, and nausea (3% each).

[1] = 1 mg PBZ per injection site, 86 patients

CC(COc1ccccc1)N(CCCl)Cc1ccccc1 (stereo not drawn) [Phenoxybenzamine Hydrochloride, phenoxybenzamine hydrochloride]
Dizziness, % of patients (0.1 mg PBZ per injection site): 5%
Dizziness, number of patients (0.1 mg PBZ per injection site): 1
Ecchymosis, % of patients (0.1 mg PBZ per injection site): 0 (0%)
Ecchymosis, number of patients (0.1 mg PBZ per injection site): 0 (0%)
Flu syndrome, % of patients (0.1 mg PBZ per injection site): 0 (0%)
Flu syndrome, number of patients (0.1 mg PBZ per injection site): 0 (0%)
Headache, % of patients (0.1 mg PBZ per injection site): 0 (0%)
Headache, number of patients (0.1 mg PBZ per injection site): 0 (0%)
Hypotension, % of patients (0.1 mg PBZ per injection site): 0 (0%)
Hypotension, number of patients (0.1 mg PBZ per injection site): 0 (0%)
Infection, % of patients (0.1 mg PBZ per injection site): 0 (0%)
Infection, number of patients (0.1 mg PBZ per injection site): 0 (0%)
Injection site edema, % of patients (0.1 mg PBZ per injection site): 0 (0%)
Injection site edema, number of patients (0.1 mg PBZ per injection site): 0 (0%)
Nausea, % of patients (0.1 mg PBZ per injection site): 0 (0%)
Nausea, number of patients (0.1 mg PBZ per injection site): 0 (0%)
Pain, % of patients (0.1 mg PBZ per injection site): 5%
Pain, number of patients (0.1 mg PBZ per injection site): 1
Sweating, % of patients (0.1 mg PBZ per injection site): 0 (0%)
Sweating, number of patients (0.1 mg PBZ per injection site): 0 (0%)
Syncope, % of patients (0.1 mg PBZ per injection site): 0 (0%)
Syncope, number of patients (0.1 mg PBZ per injection site): 0 (0%)
TOTAL NUMBER OF PATIENTS reporting treatment-emergent adverse experiences, % of patients (0.1 mg PBZ per injection site): (33%)
TOTAL NUMBER OF PATIENTS reporting treatment-emergent adverse experiences, number (0.1 mg PBZ per injection site): 7
Dizziness, % of patients (0.3 mg PBZ per injection site): 0 (0%)
Dizziness, number of patients (0.3 mg PBZ per injection site): 0 (0%)
Ecchymosis, % of patients (0.3 mg PBZ per injection site): 0 (0%)
Ecchymosis, number of patients (0.3 mg PBZ per injection site): 0 (0%)
Flu syndrome, % of patients (0.3 mg PBZ per injection site): 5%
Flu syndrome, number of patients (0.3 mg PBZ per injection site): 1
Headache, % of patients (0.3 mg PBZ per injection site): 5%
Headache, number of patients (0.3 mg PBZ per injection site): 1
Hypotension, % of patients (0.3 mg PBZ per injection site): 0 (0%)
Hypotension, number of patients (0.3 mg PBZ per injection site): 0 (0%)
Infection, % of patients (0.3 mg PBZ per injection site): 5%
Infection, number of patients (0.3 mg PBZ per injection site): 1
Injection site edema, % of patients (0.3 mg PBZ per injection site): 0 (0%)
Injection site edema, number of patients (0.3 mg PBZ per injection site): 0 (0%)
Nausea, % of patients (0.3 mg PBZ per injection site): 5%
Nausea, number of patients (0.3 mg PBZ per injection site): 1
Pain, % of patients (0.3 mg PBZ per injection site): 0 (0%)
Pain, number of patients (0.3 mg PBZ per injection site): 0 (0%)
Sweating, % of patients (0.3 mg PBZ per injection site): 0 (0%)
Sweating, number of patients (0.3 mg PBZ per injection site): 0 (0%)
Syncope, % of patients (0.3 mg PBZ per injection site): 0 (0%)
Syncope, number of patients (0.3 mg PBZ per injection site): 0 (0%)
TOTAL NUMBER OF PATIENTS reporting treatment-emergent adverse experiences, % of patients (0.3 mg PBZ per injection site): (23%)
TOTAL NUMBER OF PATIENTS reporting treatment-emergent adverse experiences, number (0.3 mg PBZ per injection site): 5
Dizziness, % of patients (1 mg PBZ per injection site): 13%
Dizziness, number of patients (1 mg PBZ per injection site): 11
Ecchymosis, % of patients (1 mg PBZ per injection site): 1 (1%)
Ecchymosis, number of patients (1 mg PBZ per injection site): 1 (1%)
Flu syndrome, % of patients (1 mg PBZ per injection site): 3 (3%)
Flu syndrome, number of patients (1 mg PBZ per injection site): 3 (3%)
Headache, % of patients (1 mg PBZ per injection site): 6%
Headache, number of patients (1 mg PBZ per injection site): 5
Hypotension, % of patients (1 mg PBZ per injection site): 2 (2%)
Hypotension, number of patients (1 mg PBZ per injection site): 2 (2%)
Infection, % of patients (1 mg PBZ per injection site): 2 (2%)
Infection, number of patients (1 mg PBZ per injection site): 2 (2%)
Injection site edema, % of patients (1 mg PBZ per injection site): 2 (2%)
Injection site edema, number of patients (1 mg PBZ per injection site): 2 (2%)
Nausea, % of patients (1 mg PBZ per injection site): 1 (1%)
Nausea, number of patients (1 mg PBZ per injection site): 1 (1%)
Pain, % of patients (1 mg PBZ per injection site): 8%
Pain, number of patients (1 mg PBZ per injection site): 7
Sweating, % of patients (1 mg PBZ per injection site): 3 (3%)
Sweating, number of patients (1 mg PBZ per injection site): 3 (3%)
Syncope, % of patients (1 mg PBZ per injection site): 2 (2%)
Syncope, number of patients (1 mg PBZ per injection site): 2 (2%)
TOTAL NUMBER OF PATIENTS reporting treatment-emergent adverse experiences, % of patients [1]: 41%
TOTAL NUMBER OF PATIENTS reporting treatment-emergent adverse experiences, number [1]: 35
Dizziness, % of patients (2.4 mg PBZ per injection site): (10%)
Dizziness, number of patients (2.4 mg PBZ per injection site): 8
Ecchymosis, % of patients (2.4 mg PBZ per injection site): 1 (1%)
Ecchymosis, number of patients (2.4 mg PBZ per injection site): 1 (1%)
Flu syndrome, % of patients (2.4 mg PBZ per injection site): 1 (1%)
Flu syndrome, number of patients (2.4 mg PBZ per injection site): 1 (1%)
Headache, % of patients (2.4 mg PBZ per injection site): 0 (0%)
Headache, number of patients (2.4 mg PBZ per injection site): 0 (0%)
Hypotension, % of patients (2.4 mg PBZ per injection site): 1 (1%)
Hypotension, number of patients (2.4 mg PBZ per injection site): 1 (1%)
Infection, % of patients (2.4 mg PBZ per injection site): 1 (1%)
Infection, number of patients (2.4 mg PBZ per injection site): 1 (1%)
Injection site edema, % of patients (2.4 mg PBZ per injection site): 9%
Injection site edema, number of patients (2.4 mg PBZ per injection site): 7
Nausea, % of patients (2.4 mg PBZ per injection site): 5%
Nausea, number of patients (2.4 mg PBZ per injection site): 4
Pain, % of patients (2.4 mg PBZ per injection site): 6%
Pain, number of patients (2.4 mg PBZ per injection site): 5
Sweating, % of patients (2.4 mg PBZ per injection site): 6%
Sweating, number of patients (2.4 mg PBZ per injection site): 5
Syncope, % of patients (2.4 mg PBZ per injection site): 1 (1%)
Syncope, number of patients (2.4 mg PBZ per injection site): 1 (1%)
TOTAL NUMBER OF PATIENTS reporting treatment-emergent adverse experiences, number (2.4 mg PBZ per injection site, 81 patients): 37
injection site soreness compared with placebo groups (high dose groups, first and second treatments): Significantly more patients
injection site pain, mean duration (in vivo): less than 10 days
injection site pain, severity (in vivo): mild to moderate
side effects at the injection site (low dosages): caused some adverse side effected at the injection site
